{
  "source": "patent US20130005721A1",
  "about": "“INDOLIZINE INHIBITORS OF 5-LIPOXYGENASE” (PANMIRA PHARMACEUTICALS, LLC, priority 2009, published 2013)",
  "data": [
    {"test_system": "human leukocytes (LTB4 production, calcium ionophore stimulated)", "assay": "Human Leukocyte LTB4 Inhibition Assay", "format": "cell-based", "settings": "Leukocyte, LTB4 by ELISA, read-out: LTB4 HLA IC50", "in_short": "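Human peripheral leukocytes (1.25×10^5 cells/ml) were isolated by dextran sedimentation and hypotonic RBC lysis. They were preincubated with drug 5 min at 37 °C, then stimulated 30 min at 37 °C with calcium ionophore […] (working solution 1.25 mM). Supernatant LTB4 was measured by ELISA. IC50 versus vehicle came from nonlinear regression of % inhibition against log concentration.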", "units": {"IC50": "nM"}, "values": [
      {"compound": "CCC(O)(c1cn(Cc2ccn3c(-c4ccc(=O)n(C)c4)c(C(N)=O)cc3c2)nn1)C(F)(F)F", "note": "(stereo not shown) [Compound 1-68, 7-[4-(1-Hydroxy-1-trifluoromethyl-propyl)-[1,2,3]triazol-1-ylmethyl]-3-(1-methyl-6-oxo-1,6-dihydro-pyridin-3-yl)-indolizine-2-carboxylic acid amide]", "IC50": "> 1000"},
      {"compound": "CCOC(=O)c1cc2cc(Cn3cc(C(O)(CC)C(F)(F)F)nn3)ccn2c1-c1ccc(C)nc1", "note": "(stereo not shown) [Compound 1-69, 7-[4-(1-Hydroxy-1-trifluoromethyl-propyl)-[1,2,3]triazol-1-ylmethyl]-3-(6-methyl-pyridin-3-yl)-indolizine-2-carboxylic acid ethyl ester]", "IC50": "< 300"},
      {"compound": "CCC(O)(c1cn(Cc2ccn3c(-c4ccc(=O)n(C)c4)c(C#N)cc3c2)nn1)C(F)(F)F", "note": "(stereo not shown) [Compound 1-70, 7-[4-(1-Hydroxy-1-trifluoromethyl-propyl)-[1,2,3]triazol-1-ylmethyl]-3-(1-methyl-6-oxo-1,6-dihydro-pyridin-3-yl)-indolizine-2-carbonitrile]", "IC50": "> 1000"},
      {"compound": "CCC(O)(c1cn(Cc2ccn3c(-c4ccc(C)nc4)c(C(N)=O)cc3c2)nn1)C(F)(F)F", "note": "(stereo not shown) [Compound 1-71, 7-[4-(1-Hydroxy-1-trifluoromethyl-propyl)-[1,2,3]triazol-1-ylmethyl]-3-(6-methyl-pyridin-3-yl)-indolizine-2-carboxylic acid amide]", "IC50": "> 1000"},
      {"compound": "CCC(O)(c1cn(Cc2ccn3c(-c4ccc(C)nc4)c(C#N)cc3c2)nn1)C(F)(F)F", "note": "(stereo not shown) [Compound 1-72, 7-[4-(1-Hydroxy-1-trifluoromethyl-propyl)-[1,2,3]triazol-1-ylmethyl]-3-(6-methyl-pyridin-3-yl)-indolizine-2-carbonitrile]", "IC50": "< 300"},
      {"compound": "CCOC(=O)c1cc2cc(Cn3cc(C(O)(CC)C(F)(F)F)nn3)ccn2c1-c1cncnc1", "note": "(stereo not shown) [Compound 1-73, 7-[4-(1-Hydroxy-1-trifluoromethyl-propyl)-[1,2,3]triazol-1-ylmethyl]-3-pyrimidin-5-yl-indolizine-2-carboxylic acid ethyl ester]", "IC50": "< 300"},
      {"compound": "CCOC(=O)c1cc2cc(Cn3cc(C(O)(CC)C(F)(F)F)nn3)ccn2c1-c1cnn(C)c1", "note": "(stereo not shown) [Compound 1-74, 7-[4-(1-Hydroxy-1-trifluoromethyl-propyl)-[1,2,3]triazol-1-ylmethyl]-3-(1-methyl-1H-pyrazol-4-yl)-indolizine-2-carboxylic acid ethyl ester]", "IC50": "< 300"}
    ]}
  ]
}
